The values that follow come from ChEMBL document CHEMBL1201862, “PubChem BioAssay data set” (2004).

SMILES strings stand for the structures.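 Five concentrations, 48 hours, 96-well plates. GI50 is the concentration that inhibits growth by half.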 Calls of active or inactive are those of the source. No stated cut-off is given here; in the data, active = GI50 up to about 1.1 µM and inactive = higher. Some results are limits rather than exact numbers.

Holding throughout (test): NCI tumour cell line growth inhibition, 48 h
In test [1] the test system is HOP-62.
Test [2] concerns HL-60.
Test [3] relates to SW-620.
Test [4] has as its system MDA-MB-435.
Test [5] has as its system MOLT-4.
Test [6] concerns HCT-15.
The subject of test [7] is PC-3.
The test system of test [8] is Malme-3M.
Test [9] deals with Hs-578T.
For test [10], the system named is SF-268.
Test [11] concerns RPMI-8226.
In test [12] the test system is NCI-H23.
The test system of test [13] is U-251.
Test [14] deals with UO-31.
The test system of test [15] is NCI-H226.
Test [16] concerns OVCAR-5.
Test [17] relates to COLO 205.
Test [18] concerns OVCAR-3.
The test system of test [19] is SK-MEL-2.
In test [20] the test system is LXFL 529.

As to `N#C/C(=C\n1ccc(=O)[nH]c1=S)C(N)=O`, the GI50 was > 100 µM (inactive) in test [1]; > 100 µM (inactive) in test [2]; > 100 µM (inactive) in test [3]; > 100 µM (inactive) in test [4]; > 100 µM (inactive) in [5]; greater than 100 µM in test [6]. The GI50 in [7], in [8], in [9], in test [10], in test [11] and in [12] was > 100 µM (inactive) throughout. Further, the GI50 in test [13] was > 100 µM (inactive); in test [14], > 100 µM (inactive); in test [15] it was > 100 µM (inactive); in [16], > 100 µM (inactive); in test [17] it was > 100 µM (inactive); in test [18], < 0.01 µM (active). The GI50 in test [19] is > 100 µM (inactive).

On to `Cc1ccc(/C=C/C(=N/NC(=O)N/N=C(/C=C/c2ccc(C)cc2)C(C)(C)CN2CCCCC2)C(C)(C)CN2CCCCC2)cc1`, for which the GI50 in test [1] was 1.65 µM (inactive); in test [2], 1.63 µM (inactive); in [3], 1.79 µM (inactive); in [4], 1.45 µM (inactive); in test [5] it was 0.125 µM (active); in test [6] it was 1.57 µM. Also, the GI50 in [7] was 1.69 µM (inactive); in test [8], 1.67 µM (inactive); in [9], 1.52 µM (inactive); in test [10], 1.81 µM (inactive); in test [11], 0.258 µM (active); in test [12], 2.19 µM (inactive). Moreover, the GI50 was 1.48 µM (inactive) in [13]; 0.813 µM (active) in test [14]; 1.82 µM (inactive) in test [15]; 2.16 µM (inactive) in test [16]; 1.53 µM (inactive) in test [17]; 1.48 µM (inactive) in test [18]. Besides, the GI50 in test [19] is 1.94 µM (inactive).

As to `CCCNC(=S)N/N=C(\C)c1ccc(S(=O)(=O)N(C)c2ccccc2)cc1`, the GI50 in [1] is 6.34 µM (inactive); in [2] it was > 100 µM (inactive); in test [3], > 100 µM (inactive); in [4], > 100 µM (inactive); in test [5], > 100 µM (inactive); in test [6], greater than 88.5 µM. Moreover, the GI50 in test [7] was > 100 µM (inactive); in test [8], > 100 µM (inactive); in test [9], 3.64 µM (inactive); in test [10] it was 7.06 µM (inactive); in [11], > 31.6 µM (inactive); in [12] it was > 60.8 µM (inactive). For the same compound, the GI50 in test [13] is 19.7 µM (inactive); in test [14], > 100 µM (inactive); in test [15] it was 29.1 µM (inactive); in test [16] it was > 67.6 µM (inactive); in test [17], > 100 µM (inactive); in test [18], > 59.2 µM (inactive). Moreover, the GI50 in test [19] is 40.8 µM (inactive).

`N#Cc1nc(C2CCC2)oc1N`: the GI50 in test [1] is > 100 µM (inactive); in test [2], 84.9 µM (inactive); in test [3], > 100 µM (inactive); in test [4], > 100 µM (inactive); in [5], > 100 µM (inactive); in [6], greater than 100 µM. Besides, the GI50 in test [7], in [8], in test [9], in test [10], in [11] and in [12] was > 100 µM (inactive) in each case. The GI50 in [13], in test [14], in test [15], in test [16], in test [17] and in [18] was > 100 µM (inactive) each time. Also, the GI50 in test [19] is > 100 µM (inactive).

Turning to `CCOC(=O)c1c(OCC)[nH]c(=O)c(C(c2cccs2)c2c(O)c(C(=O)OCC)c(OCC)[nH]c2=O)c1O`, the GI50 was 10.4 µM (inactive) in test [1]; 13.7 µM (inactive) in [2]; 12.1 µM (inactive) in test [3]; 14.5 µM (inactive) in test [4]; 6.47 µM (inactive) in test [5]; 14.5 µM in test [6]. In addition, the GI50 was 18.2 µM (inactive) in [7]; 8.36 µM (inactive) in [8]; 21 µM (inactive) in [9]; 10.2 µM (inactive) in test [10]; 12.1 µM (inactive) in [11]; 21.4 µM (inactive) in test [12]. In addition, the GI50 is 12.4 µM (inactive) in test [13]; 10.9 µM (inactive) in [14]; 3.9 µM (inactive) in test [15]; 26.5 µM (inactive) in test [16]; 17.3 µM (inactive) in test [17]; 11.6 µM (inactive) in [18]. In test [19], the GI50 is 12.8 µM (inactive).

In the case of `CN1c2c(O)nc(N)nc2NCC1CCNc1ccc(C(=O)NC(CCC(=O)O)C(=O)O)cc1` (stereo not given), the GI50 is 467 µM (inactive) in [1]; 48.1 µM (inactive) in test [2]; 52.4 µM (inactive) in [3]; 104 µM (inactive) in test [4]; 33 µM (inactive) in test [5]; 1430 µM in test [6]. Further, the GI50 in test [7] was 7.16 µM (inactive); in test [8] it was 1410 µM (inactive); in test [9], 2120 µM (inactive); in test [10], 1110 µM (inactive); in test [11] it was 141 µM (inactive); in test [12], 1640 µM (inactive). Further, the GI50 is 32.4 µM (inactive) in [13]; 1310 µM (inactive) in test [14]; 807 µM (inactive) in test [15]; 1520 µM (inactive) in [16]; 1330 µM (inactive) in [17]; 857 µM (inactive) in test [18]. Besides, the GI50 in test [19] was 1470 µM (inactive).

Regarding `COC1(C)OC[C@@]2(C)OC(C)C1(C)C2O[Si](C(C)C)(C(C)C)C(C)C` (stereo not given in full), the GI50 was 28.6 µM (inactive) in [1]; 17.5 µM (inactive) in test [2]; 33.5 µM (inactive) in test [3]; 28.7 µM (inactive) in [4]; 21.2 µM (inactive) in test [5]; 22.4 µM in test [6]. Moreover, the GI50 is 31.2 µM (inactive) in [7]; 18 µM (inactive) in test [8]; 22.2 µM (inactive) in [9]; 31.8 µM (inactive) in [10]; 28.2 µM (inactive) in test [11]; 25.7 µM (inactive) in test [12]. In addition, the GI50 in [13] was 28.5 µM (inactive); in [14] it was 45 µM (inactive); in [15], 19.5 µM (inactive); in [16], 26.6 µM (inactive); in [17], 17.8 µM (inactive); in test [18] it was 20.9 µM (inactive). The GI50 in [19] is 21 µM (inactive).

Turning to `Cn1c(CBr)nc2c1C(=O)c1nc(CBr)[nH]c(=O)c1C2=O`, the GI50 in test [3] is > 100 µM (inactive); in test [5], > 100 µM (inactive); in test [6], greater than 100 µM; in test [10], > 100 µM (inactive); in [11], 53 µM (inactive); in test [20], 53.7 µM (inactive). Further, the GI50 in [12], in test [13], in test [14] and in [17] was > 100 µM (inactive) in each case.

As to `C=C1C(=O)O[C@@H]2C[C@@]3(C)CC(=O)C=C(C)[C@@H]3C[C@H]12`, the GI50 in test [1] is 18 µM (inactive); in test [2] it was 1.71 µM (inactive); in test [3], 3.33 µM (inactive); in [4] it was 5.66 µM (inactive); in test [5] it was 3.04 µM (inactive); in test [6], 4.03 µM. Besides, the GI50 is 18.2 µM (inactive) in test [7]; 5.98 µM (inactive) in test [8]; 27.2 µM (inactive) in test [9]; 11.8 µM (inactive) in [10]; 2.12 µM (inactive) in test [11]; 13.8 µM (inactive) in test [12]. Also, the GI50 was 15.5 µM (inactive) in test [13]; 11.5 µM (inactive) in test [14]; 36.8 µM (inactive) in test [15]; 14.7 µM (inactive) in test [16]; 3.37 µM (inactive) in [17]; 6.15 µM (inactive) in test [18]. In addition, the GI50 in test [19] was 12.9 µM (inactive).

In the case of `O=C1OCN(c2ccccc2)C12CCN(Cc1ccccc1)CC2`, the GI50 in test [1] was 49.3 µM (inactive); in test [2], 27.8 µM (inactive); in test [3], 18 µM (inactive); in [4], 17.1 µM (inactive); in [5] it was 13.6 µM (inactive); in test [6], 33.7 µM. The GI50 in test [7] was 24.7 µM (inactive); in test [8], 18.1 µM (inactive); in test [9], 23.9 µM (inactive); in test [10] it was 43 µM (inactive); in [11], 23.7 µM (inactive); in [12] it was 53.5 µM (inactive). For the same compound, the GI50 in test [13] was 16.9 µM (inactive); in test [14] it was 51.3 µM (inactive); in test [15], > 100 µM (inactive); in [16], > 100 µM (inactive); in test [17], 18.8 µM (inactive); in test [18], > 10 µM (inactive). Further, the GI50 in [19] was 25.8 µM (inactive).

For the compound `C/C(=N\O)c1ccc(Nc2c3ccccc3nc3occc23)cc1`, the GI50 in test [1] is 0.436 µM (active); in test [2], 0.154 µM (active); in [3], 0.21 µM (active); in test [4], 0.0246 µM (active); in [5] it was 0.169 µM (active); in [6], 0.126 µM. Also, the GI50 in test [7] was 0.327 µM (active); in test [8], 11.5 µM (inactive); in [9] it was 0.352 µM (active); in test [10] it was 0.514 µM (active); in test [11] it was 0.207 µM (active); in [12], 1.36 µM (inactive). The GI50 is 0.333 µM (active) in test [13]; 3.49 µM (inactive) in test [14]; 2.99 µM (inactive) in test [15]; 2.75 µM (inactive) in [16]; 0.156 µM (active) in test [17]; 0.695 µM (active) in [18]. The GI50 in test [19] is 0.196 µM (active).
